According to ChEMBL document CHEMBL1124706, “Synthesis, antiretrovirus effects, and phosphorylation kinetics of 3'-isocyano-3'-deoxythymidine and 3'-isocyano-2',3'-dideoxyuridine” (1990):

Tests used:
Type in all cases: functional
MT4 [1] = test: Cytopathogenicity against HIV-2 induced replication in MT-4 cells was determined; conditions: Homo sapiens, read-out: ED50 (the source's name)
MT4 [2] = test: Cytotoxic dose to reduce the viability of MT-4 cells by 50 % was determined; conditions: Homo sapiens, read-out: CD50 (the source's name)
[3] = Ratio of CD50 value to that of ED50 value was determined and expressed as selectivity index
MT4 [4] = test: Cytopathogenicity against HIV-1 induced, replication in MT-4 cells was determined; conditions: Homo sapiens, read-out: ED50 (the source's name)

SMILES | EC50 (MT4 [1]) | CC50 (MT4 [2]) | Selectivity index [3] | EC50 (MT4 [4])
[C-]#[N+]C1CC(n2cc(C)c(=O)[nH]c2=O)OC1CO (configuration not stated) | > 800 nM | 880 nM | < 1.1 | > 800 nM
Cc1cn([C@H]2C[C@H](N=[N+]=[N-])[C@@H](CO)O2)c(=O)[nH]c1=O [ZIDOVUDINE] | 4 nM | 6300 nM | 1580 | 4 nM
[C-]#[N+]C1CC(n2ccc(=O)[nH]c2=O)OC1CO (configuration not stated) | > 500000 nM | ≥ 500000 nM | < 1 | > 500000 nM
